Assay results from US20250186452A1, “NOVEL USE OF QUINOLINE COMPOUND” (TARAPEUTICS SCIENCE INC., priority 2022, published 2025).

Columns and labels:
[1] = biological target: T1, TEL-CSF1R-BaF3 (Homo sapiens, UniProt P07333); assay: Proliferation of TEL-CSF1R-BaF3 cells (CCK-8, 72 hours); type: cell-based; details: 72 hours incubation, CCK-8
T1 construct: expressed in transfected cells; host or cells: mouse BaF3 cells (ATCC), retroviral transduction with MSCV-Puro vector, IL-3 withdrawn; the other entry of the earlier key: ETV6 (P41212, Transcription factor ETV6)
T1 sequence (P07333 582-910 limits assumed): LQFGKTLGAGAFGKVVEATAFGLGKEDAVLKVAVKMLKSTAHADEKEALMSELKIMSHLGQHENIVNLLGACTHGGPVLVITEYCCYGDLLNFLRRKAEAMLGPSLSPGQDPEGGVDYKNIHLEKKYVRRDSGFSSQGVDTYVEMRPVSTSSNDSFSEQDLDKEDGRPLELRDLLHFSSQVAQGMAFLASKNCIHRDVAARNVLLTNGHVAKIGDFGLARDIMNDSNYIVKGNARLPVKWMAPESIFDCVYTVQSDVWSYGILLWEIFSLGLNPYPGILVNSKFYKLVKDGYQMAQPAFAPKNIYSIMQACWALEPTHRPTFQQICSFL
Experimental: (§1) The incubated cells were detected by CCK-8 (purchased from MedChem Express, China) cell viability detection kit (CCK-8 can be reduced by dehydrogenases in living cells to a highly water-soluble yellow formazan product, and the amount of the generated formazan product is proportional to the number of living cells). The number of living cells was quantified by a microplate reader, and the GI50 for each compound was calculated (the results are shown in Table 2).
The construction method of the TEL-CSF1R-BaF3 cell line (a cell line stably expressing CSF1R kinase) was as follows: the sequence of human CSF1R kinase region was amplified by PCR and inserted into the MSCV-Puro vector (Clontech) with an N-terminal TEL fragment, and stably transferred into mouse BaF3 cells (purchased from ATCC, USA) by a retroviral method, and IL-3 growth factor was removed, finally a cell line dependent on CSF1R transferred protein was obtained.

[2] = system: M-NSF-60; assay: Proliferation of M-NSF-60 cells with M-CSF (CCK-8, 72 hours); type: cell-based, mouse; details: Mus musculus; M-CSF 50 ng/ml in medium, 72 hours incubation, CCK-8; read-out: M-NSF-60 (GI50/μM)
Experimental: as §1

[3] = system: MC38 cells; assay: In vivo efficacy in MC38 cell tumor transplantation mouse model; details: 50 mg/kg oral once a day
Experimental: (§2) In this example, the experimental effects of Compound 2 and the control compound PLX3397 (purchased from MedChem Express, China) in MC38 and 4T1 mouse models were tested respectively.
(§3) The experimental procedure was as follows: • (1) C57BL/6J male mice for use as MC38 transplanted tumor model and Balb/c male mice for use as 4T1 transplanted tumor model, which were 6 weeks old, were purchased from GemPharmatech Co., Ltd, Jiangsu. All the above mice were raised in an SPF laboratory, and the drinking water and padding had been sterilized by high pressure sterilization. All operations related to mice were performed under sterile conditions. • (2) On day 0, approximately 1×10^6 MC38 cells (purchased from ATCC) were injected subcutaneously into the left back of each of the C57BL/6J mice, and approximately 1×10^6 4T1 cells (purchased from ATCC) were injected subcutaneously into the left back of each of the Balb/c mice. • (3) For the MC38 mouse model, starting from the 6th day, the corresponding mice were orally administered with methylcellulose (HKI) (purchased from China National Pharmaceutical Group Corporation) solvent once a day (5 mice); Compound 2 at a dose of 50 mg/kg mouse weight once a day (5 mice); PLX3397 at a dose of 50 mg/kg mouse weight once a day (5 mice). For the 4T1 mouse model, starting from the 6th day, the corresponding mice were orally administered with 10% HS-15 (purchased from BASF, Germany) solvent (5 mice); Compound 2 at a dose of 50 mg/kg mouse weight once a day (5 mice); PLX3397 at a dose of 50 mg/kg mouse weight once a day (5 mice). • (4) Starting from the 6th day, the length/width of the subcutaneous tumor was measured with a vernier caliper every day, and the weight of the mice was recorded every day to determine the effects of Compound 2 and control compound PLX3397 on the weight of mice in different model mice. The results are shown in FIGS. 3 and 6. • (5) The growth trends of subcutaneous tumors in mice of different models were statistically analyzed. The tumor volume was calculated using the following method: length×width×width/2 mm^3. The results are shown in FIGS. 4 and 7. • (6) Isolation of tumor-infiltrating lymphocytes: Tumor tissue was first minced (tissue block less than 1 mm^3) with a surgical blade, resuspended in 6 ml of digestion solution (collagenase IV and 0.005% DNaseI enzyme, both purchased from Sigma, USA), and the mixture was transferred to a 15-ml centrifuge tube. The centrifuge tube was then placed in a shaker at 37° C. and digested with shaking at 220 r/min for 2 hours. The cells were sieved through a 200-mesh sieve and collected in a 50-ml centrifuge tube, and centrifuged at 1500 rpm for 10 minutes. The supernatant was then discarded, and 10 ml of DMEM medium (10% FBS) (purchased from GIBCO, USA) was added to the tube to terminate the digestion. The tube was placed in a centrifuge, and centrifuged at 1500 rpm for another 10 minutes. The supernatant was discarded. At the same time, Percoll separation solution (purchased from Millipore, USA) was prepared, and 90% Percoll separation working solution was prepared using 10×PBS. To a 15 ml centrifuge tube, 3-4 ml of 70% Percoll separation solution was added. The cells were resuspended in 4 ml of 40% Percoll separation solution, and the cell mixture was added to the 70% Percoll separation solution. The centrifuge tube was placed in a centrifuge and subjected to density gradient centrifugation at 25° C., 1260 g, for 30 minutes (speed up 5, speed down 0). After the centrifugation, the centrifuge tube was placed on a centrifuge tube rack, the middle leukocyte layer was aspirated with a pipette, and added to 10 ml of PBS, they were mixed well and placed in a centrifuge, and centrifuged at 1500 rpm. The cell supernatant was discarded after 10 min and the cells were resuspended in 5 ml of PBS, centrifuged at 1500 rpm for another 10 min, and the washing process was repeated once. The cells obtained were leukocytes in the tumor tissue. […]

[4] = system: 4T1 cells; assay: In vivo efficacy in 4T1 cell tumor transplantation mouse model; details: 4T1 model, 50 mg/kg oral once a day
Experimental: as §2, §3

| Structure (SMILES) | GI50 [1] [µM] | GI50 [2] [µM] | toxicity (mouse body weight) ([3]; FIG. 3) | inhibition effect of mouse tumors ([3]; FIG. 4) | toxicity (mouse body weight) ([4]; FIG. 6) | inhibition effect of mouse tumors ([4]; FIG. 7) |
| --- | --- | --- | --- | --- | --- | --- |
| COc1cc2nccc(Oc3ccc(NC(=O)Cc4ccc(Cl)c(C(F)(F)F)c4)cc3Cl)c2cc1OC [Example 38, N-(3-chloro-4-((6,7-dimethoxyquinolin-4-yl)oxy)phenyl)-2-(4-chloro-3-(trifluoromethyl)phenyl)acetamide] | 0.026 | 0.32 | – | – | – | – |
| COc1cc2nccc(Oc3ccc(NC(=O)Cc4ccc(Cl)c(C(F)(F)F)c4)cc3C#N)c2cc1OC [Example 39, N-(3-cyano-4-((6,7-dimethoxyquinolin-4-yl)oxy)phenyl)-2-(4-chloro-3-(trifluoromethyl)phenyl)acetamide] | 0.022 | 0.61 | – | – | – | – |
| COc1cc2nccc(Oc3ccc(NC(=O)Cc4ccccc4C(F)(F)F)cc3)c2cc1OC [Example 40, N-(4-((6,7-dimethoxyquinolin-4-yl)oxy)phenyl)-2-(2-(trifluoromethyl)phenyl)acetamide] | 0.007 | 0.091 | – | – | – | – |
| FC(F)(F)c1ccc(CNc2ccc(Cc3c[nH]c4ncc(Cl)cc34)cn2)cn1 [PLX3397, reference compound] | – | – | no obvious toxicity | good inhibition effect of mouse tumors | no obvious toxicity | good inhibition effect of mouse tumors |
